From ChEMBL document CHEMBL4265913, “Role of p53 circuitry in tumorigenesis: A brief review” (Eur J Med Chem, 2018)
pIC50, pKd: −log10 of the molar value.

Tests used:
PC-3 = assay: Growth inhibition of human PC3 cells harboring p53 deletion mutant after 4 days by WST8 assay; type: functional, cell-based; conditions: PC-3, 96 h
IMR-5 = assay: Antiproliferative activity against human IMR5 cells after 72 hrs by XTT assay; type: functional, cell-based; conditions: IMR-5, 72 h
IMR-32 = assay: Antiproliferative activity against human IMR32 cells after 72 hrs by XTT assay; type: functional, cell-based; conditions: IMR-32, 72 h
[1] = Antiproliferative activity against human LAN5 cells after 72 hrs by XTT assay; type: functional, cell-based; conditions: LA-N-5, 72 h
SK-N-SH = assay: Antiproliferative activity against human SK-N-SH cells after 72 hrs by XTT assay; type: functional, cell-based
SH-SY5Y = assay: Antiproliferative activity against human SH-SY5Y cells after 72 hrs by XTT assay; type: functional, cell-based
[2] = biological target: E3 ubiquitin-protein ligase Mdm2 (Homo sapiens, UniProt Q00987); assay: Binding affinity to recombinant human MDM2 (1 to 118 residues) expressed in Escherichia coli BL21 (DE3) assessed as reduction in tryptophan fluorescence by microscale thermophoresis method
U2OS = assay: Antiproliferative activity against human U2OS cells after 72 hrs by MTT assay; type: functional, cell-based

Sequence of E3 ubiquitin-protein ligase Mdm2 (Q00987 whole entry, the tested form may be a part): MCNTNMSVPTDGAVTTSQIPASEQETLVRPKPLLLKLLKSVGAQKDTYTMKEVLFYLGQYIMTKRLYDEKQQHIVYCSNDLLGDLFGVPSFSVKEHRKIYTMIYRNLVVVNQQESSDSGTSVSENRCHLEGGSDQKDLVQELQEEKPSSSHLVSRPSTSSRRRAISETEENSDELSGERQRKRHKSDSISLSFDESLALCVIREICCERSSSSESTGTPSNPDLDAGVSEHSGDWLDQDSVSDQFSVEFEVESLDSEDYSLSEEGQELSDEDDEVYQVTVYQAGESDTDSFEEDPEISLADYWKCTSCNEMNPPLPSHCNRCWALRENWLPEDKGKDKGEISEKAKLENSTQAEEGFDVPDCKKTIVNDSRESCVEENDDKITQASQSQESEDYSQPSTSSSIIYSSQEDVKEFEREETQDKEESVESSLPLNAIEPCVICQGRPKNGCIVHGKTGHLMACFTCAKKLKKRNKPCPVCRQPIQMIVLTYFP

## CN(C)C(=O)[C@@H]1N[C@H](CC(C)(C)C)[C@]2(C(=O)Nc3cc(Cl)ccc32)[C@H]1c1cccc(Cl)c1
PC-3
  pIC50: 4.65

## CC1(C)CCC2(CC1)N[C@H](C(=O)N[C@H]1CC[C@H](C(N)=O)OC1)[C@@H](c1ccnc(Cl)c1F)[C@@]21C(=O)Nc2cc(Cl)ccc21
IMR-5
  pIC50: 7.59
IMR-32
  pIC50: 7.28
[1]
  pIC50: 7.36
SK-N-SH
  pIC50: 7.66
SH-SY5Y
  pIC50: 7.75

## CN1C(=O)C(Cc2ccc(Cl)cc2)=C(c2c[nH]c3cc(Cl)ccc23)[C@]1(O)Cc1ccc(Cl)cc1
[2]
  pKd: 6.30

## Clc1ccc(C2N=C(c3ccccc3)c3cc(Cl)ccc3-n3cnnc32)cc1 (stereo not drawn)
U2OS
  pIC50: 5.38
